PMC5769417, “Single- and Multiple-Dose Trials to Determine the Pharmacokinetics, Safety, Tolerability, and Sex Effect of Oral Ginsenoside Compound K in Healthy Chinese Volunteers” (Frontiers in Pharmacology, 2018)

Test system: healthy Chinese volunteers
Assay: Single-dose trial, safety and tolerability (adverse events)
Format: in vivo, human
Protocol: Single-dose pharmacokinetics: The single-dose trial was performed first. Seven doses of CK were given orally under fasting condition: 25, 50, 100, 200, 400, 600, and 800 mg. Eligible subjects (n = 76, male:female = 1:1) were randomized into each dose level (n = 8, 8, 10, 10, 10, 8, 8, respectively) or placebo groups (n = 2 for each dose group) with equal number of men and women in each group. Subjects in each group were admitted to the clinical facility the day before drug administration and received the corresponding dose of the test drug or placebo with 250 ml warm water on the morning of the dosing day. Drinking before and after medication was prohibited for 2 h, but the amount and time of drinking were not strictly controlled at other times. All subjects had standard lunch and dinner (unified light diet) after medication 4 and 10 h.
Safety was evaluated by continuous observation of adverse events (AEs), monitoring of vital signs, ECG, hematology, biochemistry, and urinalysis at baseline, during the trials at the set time points following drug administration, and at follow-up visits after study completion. AEs were classified by their intensity into mild, moderate and severe. Additionally, the AEs were also classified according their relationship to the test drug as positive, probable, possible, remote, or unrelated. The severity of the AEs, as well as their relationship to test drug, was assessed by a qualified physician in the unit. Clinically relevant changes in vital signs, ECG and laboratory parameters were defined as marked abnormalities. ECG were recorded in the semisupine position after a rest of at least 5 min. It is worth noting that all the information, including symptoms and signs after dosing or the medications that the subjects were concomitantly taking must be recorded on the case-report form by investigators. All available data from subjects who received the test drug and placebo were included in the summaries of the safety data and were descriptively analyzed. In addition, the differences between laboratory parameters at baseline and after drug treatment were analyzed to determine whether there were clinical significances.
All the safety data, including vital signs, laboratory indexes and ECG, were descriptively analyzed, and the statistical analyses were conducted to evaluate the effects of the test drug by comparing the differences between before and after drug treatment, between the test drug group and the placebo group and among the different dose groups.

[1] = single-dose trial, 25 mg (n = 8)
[2] = single-dose trial, 50 mg (n = 8)
[3] = single-dose trial, 100 mg (n = 10)
[4] = single-dose trial, 200 mg (n = 10)
[5] = single-dose trial, 400 mg (n = 10)
[6] = single-dose trial, 600 mg (n = 8)
[7] = single-dose trial, 800 mg (n = 8)
[8] = single-dose trial, of the 44 cases of AEs

CC(C)=CCC[C@](C)(OC1O[C@H](CO)[C@@H](O)[C@H](O)[C@H]1O)[C@H]1CC[C@]2(C)[C@@H]1[C@H](O)C[C@@H]1[C@@]3(C)CC[C@H](O)C(C)(C)[C@@H]3CC[C@]12C (stereo partly drawn) [CK, 20-O-beta-D-glucopyranosyl-20(S)-protopanaxadiol]
ECG after the drug treatments (both trials): none of the subjects had clinically significant abnormalities
intensity of all observed AEs (both trials): mild or moderate
serious AEs (both trials): no serious AEs reported
safety and tolerability (single dose 25 to 800 mg and multiple doses of 100–400 mg, both trials): safe and well-tolerated
AEs after taking the test drug (single-dose trial): 33 AEs
subjects who suffered AEs after taking the test drug (single-dose trial): 22 subjects
Alkaline phosphatase increased (study drug-related AE) [1]: 0 number of subjects (%)
Any AEs (study drug-related) [1]: 0 number of subjects (%)
Bellyache (study drug-related AE) [1]: 0 number of subjects (%)
Blood white cells increased (study drug-related AE) [1]: 0 number of subjects (%)
Diarrhea (study drug-related AE) [1]: 0 number of subjects (%)
Direct bilirubin increased (study drug-related AE) [1]: 0 number of subjects (%)
Dizziness (study drug-related AE) [1]: 0 number of subjects (%)
Headache (study drug-related AE) [1]: 0 number of subjects (%)
Loss of appetite (study drug-related AE) [1]: 0 number of subjects (%)
Nausea (study drug-related AE) [1]: 0 number of subjects (%)
Rash (study drug-related AE) [1]: 0 number of subjects (%)
Subcutaneous bleeding (double forearm) (study drug-related AE) [1]: 0 number of subjects (%)
Total bilirubin increased (study drug-related AE) [1]: 0 number of subjects (%)
Alkaline phosphatase increased (study drug-related AE) [2]: 0 number of subjects (%)
Any AEs (study drug-related) [2]: 2 (2.6) number of subjects (%)
Bellyache (study drug-related AE) [2]: 0 number of subjects (%)
Blood white cells increased (study drug-related AE) [2]: 0 number of subjects (%)
Diarrhea (study drug-related AE) [2]: 0 number of subjects (%)
Direct bilirubin increased (study drug-related AE) [2]: 2 (2.6) number of subjects (%)
Dizziness (study drug-related AE) [2]: 0 number of subjects (%)
Headache (study drug-related AE) [2]: 0 number of subjects (%)
Loss of appetite (study drug-related AE) [2]: 0 number of subjects (%)
Nausea (study drug-related AE) [2]: 0 number of subjects (%)
Rash (study drug-related AE) [2]: 0 number of subjects (%)
Subcutaneous bleeding (double forearm) (study drug-related AE) [2]: 0 number of subjects (%)
Total bilirubin increased (study drug-related AE) [2]: 0 number of subjects (%)
Alkaline phosphatase increased (study drug-related AE) [3]: 0 number of subjects (%)
Any AEs (study drug-related) [3]: 2 (2.6) number of subjects (%)
Bellyache (study drug-related AE) [3]: 0 number of subjects (%)
Blood white cells increased (study drug-related AE) [3]: 0 number of subjects (%)
Diarrhea (study drug-related AE) [3]: 0 number of subjects (%)
Direct bilirubin increased (study drug-related AE) [3]: 0 number of subjects (%)
Dizziness (study drug-related AE) [3]: 1 (1.3) number of subjects (%)
Headache (study drug-related AE) [3]: 1 (1.3) number of subjects (%)
Loss of appetite (study drug-related AE) [3]: 0 number of subjects (%)
Nausea (study drug-related AE) [3]: 0 number of subjects (%)
Rash (study drug-related AE) [3]: 0 number of subjects (%)
Subcutaneous bleeding (double forearm) (study drug-related AE) [3]: 0 number of subjects (%)
Total bilirubin increased (study drug-related AE) [3]: 0 number of subjects (%)
Alkaline phosphatase increased (study drug-related AE) [4]: 1 (1.3) number of subjects (%)
Any AEs (study drug-related) [4]: 5 (6.6) number of subjects (%)
Bellyache (study drug-related AE) [4]: 0 number of subjects (%)
Blood white cells increased (study drug-related AE) [4]: 0 number of subjects (%)
Diarrhea (study drug-related AE) [4]: 2 (2.6) number of subjects (%)
Direct bilirubin increased (study drug-related AE) [4]: 2 (2.6) number of subjects (%)
Dizziness (study drug-related AE) [4]: 0 number of subjects (%)
Headache (study drug-related AE) [4]: 0 number of subjects (%)
Loss of appetite (study drug-related AE) [4]: 0 number of subjects (%)
Nausea (study drug-related AE) [4]: 0 number of subjects (%)
Rash (study drug-related AE) [4]: 0 number of subjects (%)
Subcutaneous bleeding (double forearm) (study drug-related AE) [4]: 0 number of subjects (%)
Total bilirubin increased (study drug-related AE) [4]: 1 (1.3) number of subjects (%)
Alkaline phosphatase increased (study drug-related AE) [5]: 0 number of subjects (%)
Any AEs (study drug-related) [5]: 5 (6.6) number of subjects (%)
Bellyache (study drug-related AE) [5]: 1 (1.3) number of subjects (%)
Blood white cells increased (study drug-related AE) [5]: 1 (1.3) number of subjects (%)
Diarrhea (study drug-related AE) [5]: 2 (2.6) number of subjects (%)
Direct bilirubin increased (study drug-related AE) [5]: 1 (1.3) number of subjects (%)
Dizziness (study drug-related AE) [5]: 0 number of subjects (%)
Headache (study drug-related AE) [5]: 1 (1.3) number of subjects (%)
Loss of appetite (study drug-related AE) [5]: 0 number of subjects (%)
Nausea (study drug-related AE) [5]: 0 number of subjects (%)
Rash (study drug-related AE) [5]: 0 number of subjects (%)
Subcutaneous bleeding (double forearm) (study drug-related AE) [5]: 0 number of subjects (%)
Total bilirubin increased (study drug-related AE) [5]: 0 number of subjects (%)
Alkaline phosphatase increased (study drug-related AE) [6]: 0 number of subjects (%)
Any AEs (study drug-related) [6]: 1 (1.3) number of subjects (%)
Bellyache (study drug-related AE) [6]: 0 number of subjects (%)
Blood white cells increased (study drug-related AE) [6]: 0 number of subjects (%)
Diarrhea (study drug-related AE) [6]: 0 number of subjects (%)
Direct bilirubin increased (study drug-related AE) [6]: 1 (1.3) number of subjects (%)
Dizziness (study drug-related AE) [6]: 0 number of subjects (%)
Headache (study drug-related AE) [6]: 0 number of subjects (%)
Loss of appetite (study drug-related AE) [6]: 0 number of subjects (%)
Nausea (study drug-related AE) [6]: 0 number of subjects (%)
Rash (study drug-related AE) [6]: 0 number of subjects (%)
Subcutaneous bleeding (double forearm) (study drug-related AE) [6]: 0 number of subjects (%)
Total bilirubin increased (study drug-related AE) [6]: 0 number of subjects (%)
Alkaline phosphatase increased (study drug-related AE) [7]: 0 number of subjects (%)
Any AEs (study drug-related) [7]: 3 (3.9) number of subjects (%)
Bellyache (study drug-related AE) [7]: 1 (1.3) number of subjects (%)
Blood white cells increased (study drug-related AE) [7]: 0 number of subjects (%)
Diarrhea (study drug-related AE) [7]: 1 (1.3) number of subjects (%)
Direct bilirubin increased (study drug-related AE) [7]: 0 number of subjects (%)
Dizziness (study drug-related AE) [7]: 0 number of subjects (%)
Headache (study drug-related AE) [7]: 0 number of subjects (%)
Loss of appetite (study drug-related AE) [7]: 0 number of subjects (%)
Nausea (study drug-related AE) [7]: 0 number of subjects (%)
Rash (study drug-related AE) [7]: 1 (1.3) number of subjects (%)
Subcutaneous bleeding (double forearm) (study drug-related AE) [7]: 0 number of subjects (%)
Total bilirubin increased (study drug-related AE) [7]: 0 number of subjects (%)
AEs possibly related to CK [8]: 7 cases
AEs probably related to the test drug [8]: 13 cases
